Assay results reported in the OPERA property sets (Mansouri et al. 2018).

SMILES	logP
C[N+](C)(C)Cc1cccc(N)c1.[Br-]	-2.5
O=c1cn[nH]c2ccccc12	0.82
CCN(CC)CCNC(=O)c1cc(F)ccc1OC	2.62
C=CCc1c(OCC)cc(Cc2cnc(N)nc2N)cc1OCC	3.08
CSc1nnc(CC(C)C)c(=O)n1N	1.39
Cc1cc(C)c(NC2=NCCN2)c(C)c1	2.32
COc1cc(Cc2cnc(N)nc2N)cc(OC)c1N	0.83
COc1ccc2c(c1)N=C(C)NS2(=O)=O	0.56
Nc1ccc(C(=O)Oc2ccc(Cl)cc2Cl)c(O)c1	4.27
COc1c(O)cc(Cc2cnc(N)nc2N)cc1O	-0.04
Oc1ccc(C(c2ccncc2)c2ccc(O)cc2)cc1	3.24
COc1cc(Cc2cnc(N)nc2N)cc(OC)c1OCC#N	0.72
NNC(=O)NN=Cc1ccccc1	0.81
CC(=O)N(c1ccccc1)S(C)(=O)=O	0.29
CNc1ccc(S(N)(=O)=O)cc1	0.08
CSC(C)=NOC(=O)N(C)SN(C)C(=O)C1CC1	1.7
CCCC(=O)N(C)SN(C)C(=O)ON=C(C)SC	2.2
CCCCCn1nnc2ccccc21	3.22
CC(C)CNCC(=O)NC(=O)C=[N+]=[N-]	0.37
CC(=O)OCC(Cn1ccnc1[N+](=O)[O-])OC(C)=O (stereo unspecified)	-0.05
COc1cc(C)ccc1N=C1NCCN1	1.64
CCCN(CC)CC(F)(F)F	2.38
N#Cc1ccc(OC(=O)CNC(=O)c2ccccc2)cc1	2.11
O=C(NC(CO)C(O)c1ccc(Cl)cc1)C(Cl)Cl (stereo unspecified)	1.64
Nc1nc(N)nc(-c2cc(Cl)ccc2F)n1	1.81
CNc1nc(=O)cc(-c2ccc([N+](=O)[O-])o2)s1	0.86

SMILES	logP
O=NN1CCCCCCC1	1.48
CN(C)c1cccc(C(N)=O)c1	0.95
CCCCCCNC(=O)CNC(=O)C=[N+]=[N-]	1.51
CNC(=O)Oc1ccc(S(C)(=O)=O)cc1	0.34
COC(=O)c1c(OC)cc(Cc2cnc(N)nc2N)cc1OC	0.95
CC1=Nc2c(I)cc(Cl)cc2S(=O)(=O)N1	1.81
COc1cc(C)nn1-c1nc(C)cc(C)n1	0.73
CNc1nnc(C(C)C)c(=O)n1N	0.3
O=[N+]([O-])c1ccc(Oc2ccc(C(F)(F)F)cc2[N+](=O)[O-])cc1	3.65
FC(F)(F)COC1C(Cl)C(Cl)C(Cl)C(Cl)C1Cl (stereo unspecified)	4.15
CCOCC(O)Cn1ccnc1[N+](=O)[O-] (stereo unspecified)	0.04
Cc1cc(C)cc(OC(=O)CNC(=O)c2ccccc2)c1	3.4
Nc1nc(-c2ccccc2)c2ccccc2n1	2.95
CCOc1ncnc(NS(=O)(=O)c2ccc(N)cc2)c1OC	1.18
COc1ccccc1C(=O)NCCN	0
O=C(O)COc1cccc(S(=O)(=O)C(F)(F)F)c1	2.19
O=S1(=O)N=C(Cc2ccccc2)Nc2ccccc21	1.89
O=S(=O)(Nc1ccc(F)cc1)C(F)(F)F	3.25
COc1cc(Cc2cnc(N)nc2N)cc(I)c1OC	2.33
OCC1OC(SCCCc2ccccc2)C(O)C(O)C1O (stereo unspecified)	0.38
FC(F)(F)c1nc2ncccc2[nH]1	1.38
CSc1cccc(N=NN(C)C)c1	2.98
CC12CC3(C)CC(C)(C1)CC(N)(C2)C3	4.01
COc1cc(CC(=O)O)ccc1OCCCC(C)C	3.3
CCC(C)N(C)/N=N/c1nc[nH]c1C(N)=O (stereo unspecified)	1.08
CCCCCc1nnc(N)o1	1.1

SMILES	logP
OCCCCCCn1nnc2ccccc21	1.71
O=C1CCC(=O)N1c1cccc(Cl)c1	0.98
CNC(=N)NC(=N)Nc1ccc(Cl)cc1	1.58
c1ccc(O[Si]23OCCN(CCO2)CCO3)cc1	-0.3
CCc1ccc2c(c1)N=C(C)NS2(=O)=O	1.25
CC(=O)Nc1c(C)cc(O)c(C)c1C	0.75
COc1cc(-n2c(=O)cc(C)n2C)nc(C)n1	0.7
Fc1cccc(Cl)c1N=C1NCCN1	1.45
CNC(=O)ON=Cc1ccc(Cl)c(Cl)c1	2.89
COc1nc(-c2ccccc2)c2ccccc2n1	3.5
CCOC(=O)CCCCCn1nnc2ccccc21	2.68
CCc1cc(OP(=O)(OC)OC)ccc1[N+](=O)[O-]	2.19
CCCCCCCC[n+]1ccccc1.[I-]	-0.84
CC1C2CCC3C(O)C2(CC(O)C2(O)C1CC(O)C2(C)C)CC3(C)O (stereo unspecified)	1.51
NNC(=O)NCc1ccccc1	-0.22
COC(=O)C(C#N)=NNc1cc(Cl)c(Cl)cc1Cl	5.15
CC(C)OCC(O)Cn1ccnc1[N+](=O)[O-] (stereo unspecified)	0.51
CNC(=O)Oc1cc(C)cc(C(C)(C)C)c1	3.35
CCc1ccc(N=NN(C)C(C)=O)cc1	3.36
COc1cc(Cc2cnc(N)nc2N)cc(OC)c1C(=O)OC(C)C	1.72
CC1=NS(=O)(=O)c2ccc(Cl)cc2N1	1.21
CC(=O)Nc1cc(C)c(O)c(C)c1C	0.82
CCC(C)(Oc1ccc(Cl)cc1)C(=O)O (stereo unspecified)	2.9
NC1=NC(=O)C(=Cc2ccc([N+](=O)[O-])o2)S1	1.09
CC1=Nc2c(C)cccc2S(=O)(=O)N1	0.52
CCCCCCCCCCOn1c(=O)[nH]c(C)c(Br)c1=O	4.65

SMILES	logP
CSC(C)=NOC(=O)N(C)SN(C)C(=O)c1ccccc1	2.2
CCCCOc1cc(Cc2cnc(N)nc2N)c(C)cc1OC	2.78
COC1(C(F)(F)F)C(Cl)C(Cl)C(Cl)C(Cl)C1Cl (stereo unspecified)	4.06
C[N+](C)(C)Cc1cccc(O)c1.[Br-]	-2.4
N#CSc1ccccc1	2.54
CN1C(=Nc2ncc([N+](=O)[O-])s2)NCC1(C)C	2.35
O=NN(CCCl)C(=O)NCCCCNC(=O)N(CCCl)N=O	0.9
CC(=O)NC1=C(Nc2ccccc2)C(=O)c2ccccc2C1=O	1.73
Cc1ccc(N2C(N)=NC(N)=NC2(C)C)cc1	0.85
Cc1[nH]c(=O)n(OC(C)C)c(=O)c1Br	0.45
COc1cc(Cc2cnc(N)nc2N)c(Cl)c(OC)c1	2.13
CC1CNC(=Nc2ncc([N+](=O)[O-])s2)N1 (stereo unspecified)	1.82
COP(=O)(NCC(C)C)Oc1cc(Cl)c(Cl)cc1Cl (stereo unspecified)	3.86
Cc1nnc(SCc2ccccc2)[nH]1	1.68
Cc1ccccc1C1=NCC(=O)Nc2ccc(Cl)cc21	3.12
CCN(CC)CCCNC(=O)c1ccccc1OC	1.76
CCc1ccc2c(c1)C(c1ccccc1F)=NCC(=O)N2	2.92
Nc1ncc(Cc2cc(Cl)c(Cl)c(Cl)c2)c(N)n1	3.64
CCCCNc1ccccc1C(N)=O	2.33
CS(=O)(=O)c1cccc(OCC(=O)O)c1	0.01
Cc1ccc(NC(=O)c2ccco2)c(O)c1	2.84
Nc1nc(N)nc(-c2cc(Br)ccc2F)n1	1.94
O=C(O)COc1cccc(S(F)(F)(F)(F)F)c1	2.78
CCC(C)c1ccccc1OC(=O)N(C)C (stereo unspecified)	3.31
CN(C)c1cnnc(N(C)C)c1	0.84
O=NN(CCCl)C(=O)NCCO	0.3

SMILES	logP
CNP(=O)(OC)Oc1cc(Cl)c(Cl)cc1Cl (stereo unspecified)	3.06
CC(=O)C(C#N)=NNc1ccc(SC(F)(F)F)cc1	5.04
O=C(O)c1cccc(CSc2ccccc2)c1O	4.28
CCCCCCNP(=O)(OC)SC (stereo unspecified)	1.11
COc1ccc(Br)cc1Cc1cnc(N)nc1N	2.44
COc1ccc(C(c2ccc(OC)cc2)C(Cl)Cl)cc1	4.47
CCC(=O)Cn1ccnc1C=Cc1occc1[N+](=O)[O-]	1.27
O=c1cc(-c2ccc([N+](=O)[O-])o2)sc(=O)[nH]1	0.55
CN(C)N=Nc1cccc(C(=O)O)c1	2.03
CC(C)(C)C(=O)NN1CC=CCC1	1.03
CCOC(=O)N(C)SN(C)C(=O)Oc1cccc2c1OC(C)(C)C2	3.5
N=C(N)NC(=O)Nc1ccc([N+](=O)[O-])c(Cl)c1	1.79
N#Cc1ccc2c(c1)C(c1ccccc1)=NCC(=O)N2	1.82
CC(=O)Nc1cccc(OC(=O)CNC(=O)c2ccccc2)c1	1.7
N#Cc1ccc(NS(=O)(=O)c2ccc(N)cc2)cc1	1.83
CCCOn1c(=O)cc(C)[nH]c1=O	0.3
Nc1cccc(O[Si]23OCCN(CCO2)CCO3)c1	-1.15
O=C(Nc1ccccc1)NC(CO)(CO)CO	0.43
COc1cc(Cc2cnc(N)nc2N)cc(OC)c1C	2.14
Nc1ccc(Cc2cnc(N)nc2N)cc1	0.22
O=C(O)C1CCc2ccccc2O1 (stereo unspecified)	1.9
COc1ccccc1C(=O)NN	0.25
CC1=Nc2c([N+](=O)[O-])cc(Cl)cc2S(=O)(=O)N1	0.85
COP(=O)(Oc1cc(Cl)c(Br)cc1Cl)c1ccccc1 (stereo unspecified)	4.58
CN(C)CNC(=O)c1ccccc1	0.63
CC(C)=CC1C(C(=O)OCc2ccc(C#N)cc2)C1(C)C (stereo unspecified)	4.91

SMILES	logP
CCOC(=O)C(=Cc1cccc(OC)c1)C(=O)OCC	3.18
COc1cc(Cc2cnc(N)nc2N)cc(OC)c1I	2.4
CS(=O)(=O)c1cccc(NC(N)=O)c1	-0.12
COc1ccccc1C(=O)N1CCN(C)CC1	0.29
Clc1ncnc2sccc12	1.79
COc1cccc(NS(=O)(=O)C(F)(F)F)c1	3.13
CC1=Nc2cc(N)c(Cl)cc2S(=O)(=O)N1	0.63
COc1cc(OC)nc(-n2[nH]c(=O)cc2C)n1	1.16
N#Cc1cc(OCC(=O)O)ccc1Cl	1.56
Brc1ccc(N=C2NCCN2)cc1	1.75
O=C(CN1CCCCC1)Nc1cccc(Cl)c1	3.45
COc1cc(Cc2cnc(N)nc2N)cc(OC)c1Br	2.01
CCN1C(=O)SC(=Cc2ccc([N+](=O)[O-])o2)C1=O	2.29
CCCCCCCC1(CC)C(=O)NC(=O)NC1=O	2.91
COc1c(N(C)C)cc(Cc2cnc(N)nc2N)cc1N(C)C(C)=O	1.01
CNC(=O)Oc1cccc([N+](=O)[O-])c1	1.39
C=CCOCC(O)Cn1ccnc1[N+](=O)[O-] (stereo unspecified)	0.4
[N-]=[N+]=CC(=O)NCC(=O)NCCO	-1.35
COCN1C(=O)CN=C(c2ccccc2)c2cc(Cl)ccc21	2.86
O=C(O)COc1cccc(SC(F)(F)F)c1	2.86
Cc1csc(C=Cc2ccc([N+](=O)[O-])o2)n1	1.53
